Reference: US10000452B1, “Quinolone-based compounds, formulations, and uses thereof” (University of South Florida, priority 2016, dated 2018)
In brackets after ≈: the same amount, converted by molar mass. Several values for one entry are separate records, joined by “and”; a condition that tells them apart may be missing. Identical values can stand only once. Like-named read-outs stand apart in the source and are kept apart here.

How the values were obtained:
[1] = tested on: malarial strain W2 (pyrimethamine and chloroquine-resistant); assay: in vitro antimalarial activity against multidrug resistant strain W2; format: cell-based, P. falciparum; settings: Plasmodium falciparum, read-out: EC50 W2 (nM)
[2] = tested on: malarial strain TM90-C2B (mefloquine, chloroquine, atovaquone, and pyrimethamine-resistant); assay: microbe, parasite or virus in culture; format: cell-based, P. falciparum; settings: Plasmodium falciparum, TM90, read-out: EC50 TM90-C2B (nM)
Source text: Ideally, the RI of a compound should lie between 0.3 and 3.0 in order to avoid rapidly inducing resistance in the parasite. […]

[3] = tested on: P. berghei sporozoites expressing luciferase; assay: in vitro liver stage activity, luciferase sporozoites infecting HEPG2 hepatoma cells; format: cell-based; settings: Plasmodium berghei, HEPG2 cells
[4] = tested on: J774 mammalian cells; assay: cytotoxicity to J774 cells; format: cell-based; settings: Mus musculus, J774, read-out: EC50 J774 (μM)
Experimental: This allowed a simplified method for comparing the different assays being simultaneously run. Additionally, each compound was also tested for cytotoxicity using mammalian J774 cell lines in a 96-well plate format.^12-14, 16

[5] = aqueous solubility (LC/MS- or HPLC-based assay); format: physicochemical
In short: (§1)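 Aqueous solubility and log D (pH 7.4) determined by LC/MS-based assays; solubility examined at more than one pH.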

[6] = lipophilicity log D at pH 7.4; format: physicochemical; settings: octanol/water
In short: as §1

[7] = tested on: Pb-infected mice; assay: in vivo efficacy scouting assay against blood stages; parameters: species or system P. berghei; mice; settings: for inhibition in vivo at 50 mg/kg: Plasmodium berghei, po, 144 h, read-out: % Inhibition Day 6 PI; for activities in these scout assays / % Inhibition Day 3 PI / % Inhibition Day 6 PI: single oral 50 mg/kg dose 1 day PI; for activities in these scout assays: result in words; for % Inhibition Day 3 PI / % Inhibition Day 6 PI: vs untreated animals
Experimental: The screening involved a single oral 50 mg/kg dose 1 day post infection (PI) and an assessment of parasitemia on days 3 PI and 6 PI (Table 6).
The screening was performed by treating two infected mice with a single 50 mg/kg oral dose of test compound suspended in PEG400 on day 1 postexposure (PE) followed by assessing parasitemia on days 3 and 6 PE.

[8] = tested on: P. berghei-GFP parasites; assay: modified Thompson test; format: in vivo, P. berghei; mice; settings: for No. of Cures: survival to day 30 PI with parasitemia <1%
Experimental: Mice were infected with 1×10^6 P. berghei-GFP parasites and compounds were dosed orally on days 3, 4 and 5 PI with a dose of 10 mg/kg of compound suspended or dissolved in HEC/Tween or PEG 400. Parasitemia was observed by flow cytometry on days 3, 6, 9, 13, 21, and 30 PI. Compounds with animal survival up to day 30 PI and parasitemia levels of less than 1% on day 30 PI were considered to be cures. Lastly, animals with more than 40% parasitemia levels were euthanized.
On days 3, 6, 9, 13, 21, and 30 PE, parasitemia was monitored by Giemsa-stained blood smears. Both compounds were evaluated by the reduction of parasitemia on day 6 PE and the survival up to day 30 PE.

[9] = molecular target: P. berghei sporozoites expressing luciferase; settings: previous work; read-out: liver stage activity; cited from earlier work
[10] = tested on: malarial strain TM90-C2B (mefloquine, chloroquine, atovaquone, and pyrimethamine-resistant); settings: previous work; cited from earlier work
[11] = 10 mg/kg oral on days 3, 4 and 5 PI

Row | SMILES | EC50 [1] | EC50 [2] | EC50 [3] | EC50 [4] | chromatographic logD [6] | inhibition in vivo at 50 mg/kg [7] | activities in these scout assays [7] | % Inhibition Day 3 PI [7] | % Inhibition Day 6 PI [7] | No. of Cures [8, 11] | other results
1 | Cc1[nH]c2cc(CN3CCN(c4ccc(F)cc4)CC3)ccc2c(=O)c1Br [Compound 8an, 3-Bromo-7-((4-(4-fluorophenyl)piperazin-1-yl)methyl)-2-methylquinolin-4(1H)-one] | 25.1 nM | 25.5 nM | 26.2 nM | > 20 µM | 2.83 | > 85% | excellent activities | full inhibition | completely inhibited parasite growth | 0/5 | solubility ([5]; aqueous solution (buffer not named), pH 2, simulated gastric fluid, pH 2.0, read-out: Solubility pH 2.0): ≥ 80 µM; solubility ([5]; aqueous solution (buffer not named), pH 6.5, aqueous buffer, pH 6.5, read-out: Solubility pH 6.5): 1 to 19.9 µM (≈ 0.43 to 8.56 µg/mL); Avg. Day of Death [8, 11]: 13; inhibition in vivo at 10 mg/kg ([8]; Plasmodium berghei, in Mus musculus, 144 h, 10 mg/kg oral on days 3, 4 and 5 PI, vs untreated control animals, read-out: % Inhibition Day 6 PI): 90.9%
2 | COC(=O)c1c[nH]c2cc(CN3CCN(c4ccc(C(F)(F)F)cc4)CC3)c(OC)cc2c1=O [Compound 8ab, Methyl 6-methoxy-4-oxo-7-((4-(4-(trifluoromethyl)phenyl)piperazin-1-yl)methyl)-1,4-dihydroquinoline-3-carboxylate] | 6.42 nM | – | 9.58 nM | > 20 µM | 1.29 | > 85% | excellent activities | full inhibition | completely inhibited parasite growth | 3 of the 5 and 3/5 | solubility ([5]; aqueous solution, pH 2, simulated gastric fluid, pH 2.0, read-out: Solubility pH 2.0): 1 to 19.9 µM (≈ 0.475 to 9.46 µg/mL); solubility ([5]; aqueous solution, pH 6.5, aqueous buffer, pH 6.5, read-out: Solubility pH 6.5): 1 to 19.9 µM (≈ 0.475 to 9.46 µg/mL)
3 | CCCCc1cc2c(=O)c(Br)c(C)[nH]c2cc1OCCOc1ccccc1 [Compound 16c, 3-Bromo-6-butyl-2-methyl-7-(2-phenoxyethoxy)quinolin-4(1H)-one] | 2.6 nM | 12.2 nM | – | – | – | – | – | – | – | – | fold more soluble in comparison to 6b ([5]; Example 2): approximately 10; % inhibition on day 6 PE ([7]; Example 2: two mice, single 50 mg/kg oral dose in PEG400 on day 1 PE): 49.5%; day mice were sacrificed ([8]; Example 2: 10 mg/kg oral days 3, 4, 5, controls sacrificed day 13): 13; % inhibition on day 6 PE ([8]; Example 2: 10 mg/kg oral days 3, 4, 5 in HEC/Tween, Giemsa-stained smears): 61%; EC50 [9]: 2.12 nM; resistance index (RI) [10]: 4.69
